Experimental findings from patent publication US20260042764A1, “COMPOSITIONS AND METHODS FOR INHIBITION OF KRAS” (TheRas, Inc., priority 2022, published 2026) are described below.

Molecules are shown by their SMILES. A value given as a limit tells only on which side of the number the result lay.

Experiment [1] deals with AsPC-1 cells (KRAS G12D). In words: Cell-based pERK HTRF assay in AsPC-1 cells (Biological Example 5). The gist of the method: (§1)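 Cells seeded at 2.5×10^4/well in 10% FBS medium overnight, then treated 2 h at 37° C with a 9-point, three-fold compound dilution series (0.25% DMSO final). Lysates were read by HTRF for pERK1/2 (Thr202/Tyr204) after 24 h at 4° C; EC50 came from a four-parameter fit of 665/620 nm ratios.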

The test system of experiment [2] is SW1900 cells (KRAS G12D). In words: Cell-based pERK HTRF assay in SW1900 cells (Biological Example 5). In a few lines:
as §1

Experiment [3] concerns HPAC cells (KRAS G12D). Briefly: Cell-based pERK HTRF assay in HPAC cells (Biological Example 5). In a few lines: as §1
Experiment [4] concerns Capan-2 cells (KRAS G12V). In words: Cell-based pERK HTRF assay in Capan-2 cells (Biological Example 5). The gist of the method:
as §1

The subject of experiment [5] is H358 cells (KRAS G12C). Briefly: Cell-based pERK HTRF assay in H358 cells (Biological Example 5). In a few lines: as §1
Experiment [6] has as its system MKN1 cells (KRAS amplification). Briefly: Cell-based pERK HTRF assay in MKN1 cells (Biological Example 5). In a few lines:
as §1

Experiment [7] concerns AsPC-1 cells (KRAS G12D). In words: 3D Cell viability assay in AsPC-1 cells (Biological Example 6). The settings on record: Homo sapiens, ASPC1; AsPC-1 (KRAS G12D) spheroids, 72 hours. The experiment is classed as cell-based. In a few lines: (§2)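 EC50 came from a four-parameter log(inhibitor) vs response fit of CellTiter-Glo 3D luminescence. Compound exposure lasted 72 h at 37 °C: nine three-fold dilutions, 0.25% final DMSO. Cells were first grown 48 h as 3D spheroids (1000 cells/well, 10% FBS).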

Experiment [8] deals with SW1900 cells (KRAS G12D). Briefly: 3D Cell viability assay in SW1900 cells (Biological Example 6). The settings on record: Homo sapiens; SW1990 (text: SW1900, KRAS G12D) spheroids, 72 hours. It counts as cell-based. The gist of the method: as §2
In experiment [9] the test system is HPAC cells (KRAS G12D). Briefly: 3D Cell viability assay in HPAC cells (Biological Example 6). It counts as cell-based. The following applies: Homo sapiens, HPAC, 72 h, HPAC (KRAS G12D) spheroids. In a few lines: as §2
Experiment [10] concerns Capan-2 cells (KRAS G12V). Briefly: 3D Cell viability assay in Capan-2 cells (Biological Example 6). The experiment is classed as cell-based. The following applies: Homo sapiens; Capan-2 (KRAS G12V) spheroids, 72 hours. In a few lines:
as §2

The subject of experiment [11] is H358 cells (KRAS G12C). In words: 3D Cell viability assay in H358 cells (Biological Example 6). It counts as cell-based. The following applies: Homo sapiens, NCI-H358; H358 (KRAS G12C) spheroids, 72 hours. In a few lines: as §2
In experiment [12] the test system is MKN1 cells (KRAS amplification). Briefly: 3D Cell viability assay in MKN1 cells (Biological Example 6). The experiment is classed as cell-based. The following applies: Homo sapiens, MKN-1; MKN (MKN1, KRAS amplification) spheroids, 72 hours. In a few lines: as §2
A further experiment relates to HT1080 cells (NRAS). Briefly: 3D Cell viability assay in HT1080 cells (Biological Example 6). The experiment is classed as cell-based. The settings on record: Homo sapiens, HT-1080; HT1080 (NRAS) spheroids, 72 hours. In a few lines:
as §2

[13] abbreviates: Homo sapiens, ASPC1, AsPC-1 (KRAS G12D) cells.
Where [14] appears, read: Homo sapiens, SW1990, SW1990 cells (text: SW1900, KRAS G12D).
Setting [15] is: Homo sapiens, Capan-2, Capan-2 (KRAS G12V) cells.
[16] abbreviates: Homo sapiens, NCI-H358, H358 (KRAS G12C) cells.
Where [17] appears, read: Homo sapiens, MKN-1, MKN cells (MKN1, KRAS amplification).

As to `CCN(c1nc(OC[C@@]23CCCN2C[C@H](F)C3)nc2c(F)c(-c3ccc(F)c4sc(N)c(C#N)c34)c(C(F)(F)F)cc12)[C@H]1CCN(C(=O)C(C)C)C1` (atropisomer, axis not shown) [Compound 468], the IC50 in the experiment on AsPC-1 cells (KRAS G12D) [1] (AsPC-1 (KRAS G12D) cells) was > 1000 nM; with SW1900 cells (KRAS G12D) [2] (SW1990 cells (text: SW1900, KRAS G12D)), > 1000 nM; with HPAC cells (KRAS G12D) [3], > 1000 nM; in experiment [4] (Capan-2 (KRAS G12V) cells) it was > 1000 nM; in the experiment on H358 cells (KRAS G12C) [5] (H358 (KRAS G12C) cells), > 1000 nM; in experiment [6] (MKN cells (MKN1, KRAS amplification)), > 1000 nM.

With `CCOC(=O)N1CC[C@H](N(CC)c2nc(OC[C@@]34CCCN3C[C@H](F)C4)nc3c(F)c(-c4ccc(F)c5sc(N)c(C#N)c45)c(C(F)(F)F)cc23)C1` [Compound 467], the IC50 was 100 to 1000 nM with AsPC-1 cells (KRAS G12D) [1] (setting [13]); ≤ 100 nM in the experiment on SW1900 cells (KRAS G12D) [2] (setting [14]); 100 to 1000 nM with HPAC cells (KRAS G12D) [3] (Homo sapiens, HPAC); ≤ 100 nM in [4] (setting [15]); ≤ 100 nM in the experiment on H358 cells (KRAS G12C) [5] (setting [16]); ≤ 100 nM in experiment [6] (setting [17]). Also, the IC50 is ≤ 100 nM in the experiment with AsPC-1 cells (KRAS G12D) [7]; ≤ 100 nM in the experiment on SW1900 cells (KRAS G12D) [8]; > 1000 nM in the experiment on HPAC cells (KRAS G12D) [9]; ≤ 100 nM in [10]; ≤ 100 nM in the experiment with H358 cells (KRAS G12C) [11]; ≤ 100 nM in [12]. In addition, the IC50 in the experiment with HT1080 cells (NRAS) is > 1000 nM.

`N#Cc1c(N)sc2c(F)ccc(-c3c(C(F)(F)F)cc4c(N5CCn6nc(N7CCOCC7)cc6C5)nc(OC[C@@]56CCCN5C[C@H](F)C6)nc4c3F)c12` [Compound 485]: the IC50 in the experiment with AsPC-1 cells (KRAS G12D) [1] (setting [13]) was 100 to 1000 nM; in the experiment on SW1900 cells (KRAS G12D) [2] (setting [14]) it was ≤ 100 nM; with HPAC cells (KRAS G12D) [3] (Homo sapiens, HPAC) it was 100 to 1000 nM; in [4] (setting [15]), ≤ 100 nM; in the experiment with H358 cells (KRAS G12C) [5] (setting [16]) it was ≤ 100 nM; in experiment [6] (setting [17]), ≤ 100 nM. The IC50 in the experiment with AsPC-1 cells (KRAS G12D) [7] is ≤ 100 nM; in the experiment with SW1900 cells (KRAS G12D) [8], ≤ 100 nM; in the experiment with HPAC cells (KRAS G12D) [9] it was 100 to 1000 nM; in experiment [10] it was ≤ 100 nM; with H358 cells (KRAS G12C) [11], ≤ 100 nM; in [12], 100 to 1000 nM. The IC50 in the experiment with HT1080 cells (NRAS) is > 1000 nM.

`CCN(c1nc(OC[C@@]23CCCN2C[C@H](F)C3)nc2c(F)c(-c3ccc(F)c4sc(N)c(C#N)c34)c(C(F)(F)F)cc12)[C@H]1CCS(=O)(=O)C1` (atropisomer, axis not shown) [Compound 492]: the IC50 in the experiment on AsPC-1 cells (KRAS G12D) [1] (setting [13]) is ≤ 100 nM; in the experiment with SW1900 cells (KRAS G12D) [2] (setting [14]), ≤ 100 nM; with HPAC cells (KRAS G12D) [3] (Homo sapiens, HPAC), ≤ 100 nM; in experiment [4] (setting [15]) it was ≤ 100 nM; in the experiment with H358 cells (KRAS G12C) [5] (setting [16]), ≤ 100 nM; in experiment [6] (setting [17]) it was ≤ 100 nM. Also, the IC50 (in the experiment with AsPC-1 cells (KRAS G12D) [7]; in the experiment with SW1900 cells (KRAS G12D) [8]; in the experiment with HPAC cells (KRAS G12D) [9]; in experiment [10]; with H358 cells (KRAS G12C) [11]; in experiment [12]) was ≤ 100 nM each time. In addition, the IC50 with HT1080 cells (NRAS) is > 1000 nM.

As for `Cc1cc2n(n1)CCN(c1nc(OCC34CCCN3CC(F)C4)nc3c(F)c(-c4ccc(F)c5sc(N)c(C#N)c45)c(C(F)(F)F)cc13)C2` (centres unmarked) [Compound 484], the IC50 in the experiment with AsPC-1 cells (KRAS G12D) [1] (setting [13]) was ≤ 100 nM; in the experiment on SW1900 cells (KRAS G12D) [2] (setting [14]), ≤ 100 nM; in the experiment on HPAC cells (KRAS G12D) [3] (Homo sapiens, HPAC) it was 100 to 1000 nM; in experiment [4] (setting [15]) it was ≤ 100 nM; with H358 cells (KRAS G12C) [5] (setting [16]) it was ≤ 100 nM; in experiment [6] (setting [17]) it was ≤ 100 nM. Moreover, the IC50 with AsPC-1 cells (KRAS G12D) [7] was ≤ 100 nM; in the experiment on SW1900 cells (KRAS G12D) [8] it was ≤ 100 nM; in the experiment on HPAC cells (KRAS G12D) [9], 100 to 1000 nM; in [10], ≤ 100 nM; with H358 cells (KRAS G12C) [11], ≤ 100 nM; in [12] it was 100 to 1000 nM. Further, the IC50 in the experiment with HT1080 cells (NRAS) is > 1000 nM.

As to `CCN(c1nc(OC[C@@]23CCCN2C[C@H](F)C3)nc2c(F)c(-c3ccc(F)c4sc(N)c(C#N)c34)c(C(F)(F)F)cc12)[C@H]1C[C@H](C)N(C(=O)C2CC2)C1` [Compound 470], the IC50 in the experiment with AsPC-1 cells (KRAS G12D) [1] (setting [13]) is ≤ 100 nM; in the experiment with SW1900 cells (KRAS G12D) [2] (setting [14]) it was ≤ 100 nM; with HPAC cells (KRAS G12D) [3] (Homo sapiens, HPAC), 100 to 1000 nM; in experiment [4] (setting [15]), ≤ 100 nM; in the experiment on H358 cells (KRAS G12C) [5] (setting [16]), ≤ 100 nM; in experiment [6] (setting [17]), ≤ 100 nM. Moreover, the IC50 in the experiment on AsPC-1 cells (KRAS G12D) [7] was ≤ 100 nM; in the experiment with SW1900 cells (KRAS G12D) [8], ≤ 100 nM; in the experiment with HPAC cells (KRAS G12D) [9], > 1000 nM; in [10] it was ≤ 100 nM; in the experiment on H358 cells (KRAS G12C) [11], ≤ 100 nM; in experiment [12], ≤ 100 nM. In addition, in the experiment with HT1080 cells (NRAS), the IC50 was > 1000 nM.
